According to patent US20150368248A1, “2-SUBSTITUTED-6-BIARYLMETHYLAMINO-9-CYCLOPENTYL-9H-PURINE DERIVATIVES, USE THEREOF AS MEDICAMENTS, AND PHARMACEUTICAL COMPOSITIONS” (UNIVERZITA PALACKEHO V OLOMOUCI, priority 2013, published 2015):

What was measured:
CDK9/Cyclin T1 = molecular target: T1, CDK9/Cyclin T1 (Homo sapiens, UniProt P50750); assay: Kinase inhibition assay, recombinant kinase, [γ-33P]ATP; assay type: biochemical; settings: read-out: Residual kinase activity, CDK9
T1 construct: purchased ProQinase GmbH (Freiburg, Germany)
T1 sequence (P50750 whole entry): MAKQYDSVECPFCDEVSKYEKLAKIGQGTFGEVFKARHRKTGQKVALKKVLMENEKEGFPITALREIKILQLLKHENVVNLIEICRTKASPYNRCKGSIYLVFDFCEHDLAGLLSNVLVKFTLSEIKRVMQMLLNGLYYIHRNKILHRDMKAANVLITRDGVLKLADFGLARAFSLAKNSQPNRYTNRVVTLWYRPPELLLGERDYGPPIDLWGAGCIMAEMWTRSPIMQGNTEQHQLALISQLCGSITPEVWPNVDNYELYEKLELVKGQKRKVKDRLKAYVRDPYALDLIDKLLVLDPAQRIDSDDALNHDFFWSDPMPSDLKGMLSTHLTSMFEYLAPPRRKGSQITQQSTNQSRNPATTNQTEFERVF
T1 sequence (O60563 whole entry partner): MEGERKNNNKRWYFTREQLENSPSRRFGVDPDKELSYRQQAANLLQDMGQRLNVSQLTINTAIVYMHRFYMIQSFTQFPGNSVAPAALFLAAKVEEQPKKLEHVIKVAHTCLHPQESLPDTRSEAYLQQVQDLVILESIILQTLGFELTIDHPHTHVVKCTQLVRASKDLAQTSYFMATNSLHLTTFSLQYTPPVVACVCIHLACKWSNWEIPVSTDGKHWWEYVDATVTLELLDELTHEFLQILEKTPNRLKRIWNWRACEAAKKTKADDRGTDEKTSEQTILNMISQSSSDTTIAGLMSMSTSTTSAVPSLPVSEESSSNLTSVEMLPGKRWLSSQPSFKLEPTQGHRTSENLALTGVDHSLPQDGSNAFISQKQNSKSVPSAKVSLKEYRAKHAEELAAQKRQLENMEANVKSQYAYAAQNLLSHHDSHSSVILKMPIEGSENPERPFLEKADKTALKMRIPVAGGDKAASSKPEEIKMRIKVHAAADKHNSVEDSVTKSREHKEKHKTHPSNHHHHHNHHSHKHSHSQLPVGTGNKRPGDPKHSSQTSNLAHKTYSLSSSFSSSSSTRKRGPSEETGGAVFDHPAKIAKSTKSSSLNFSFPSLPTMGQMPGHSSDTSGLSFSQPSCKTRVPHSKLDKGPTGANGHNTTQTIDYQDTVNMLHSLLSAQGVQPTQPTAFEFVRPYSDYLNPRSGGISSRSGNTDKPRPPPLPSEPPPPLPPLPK
Experimental: (§1) CDK2/Cyclin E kinase was produced in Sf9 insect cells via baculoviral infection and purified on a NiNTA column (Qiagen). CDK5/p35, CDK7Cyclin H/MAT1 and CDK9/Cyclin T1 was purchased from ProQinase GmbH. The kinase reactions were assayed with 1 mg/mL histone H1 (for CDK2 and CDK5) or (YSPTSPS)2KK peptide (for CDK7 and CDK9) in the presence of 15/0.15/1.5/1.5 μM ATP (for CDK2/CDK5/CDK7CDK9), 0.05 μCi [γ-^33P]ATP and of the test compound in a final volume of 10 μL, all in a reaction buffer (60 mM HEPES-NaOH, pH 7.5, 3 mM MgCl2, 3 mM MnCl2, 3 μM Na-orthovanadate, 1.2 mM DTT, 2.5 μg/50 μl PEG20,000). The reactions were stopped by adding 5 μL of 3% aq H3PO4. Aliquots were spotted onto P-81 phosphocellulose (Whatman), washed 3× with 0.5% aq H3PO4 and finally air-dried.
(§2) CDK1/cyclin B and CDK2/cyclin E kinases were produced in Sf9 insect cells via baculoviral infection, while CDK5/p35, CDK7/cyclin H/MAT1, and CDK9/cyclin T1 were purchased from ProQinase (Freiburg, Germany) and assayed as described previously (35). The kinase reactions were assayed with 1 mg/ml histone H1 (for CDK2 and CDK5) or (YSPTSPS)2KK peptide (for CDK7 and CDK9) in the presence of 15/0.15/1.5/1.5 […] ATP (for CDK2/CDK5/CDK7CDK9), […] [γ-^33P]ATP and of the test compound in a final volume of […]. The reaction buffer contained 60 mM HEPES-NaOH, pH 7.5, 3 mM MgCl2, 3 mM MnCl2, 3 mM Na-orthovanadate, 1.2 mM DTT, 2.5 mg/50 ml PEG20.000. The reactions were stopped by adding […] of 3% H3PO4. Aliquots were spotted onto P-81 phosphocellulose (Whatman, GE Healthcare Biosciences, Pittsburgh, USA), washed 3 times with 0.5% H3PO4 and finally air-dried. Kinase inhibition was quantified using a FLA-7000 digital image analyzer (Fujifilm, Tokyo, Japan).

CDK5/p35 = molecular target: T2, CDK5/p35 (Homo sapiens, UniProt Q00535); assay: as above; assay type: biochemical; settings: read-out: Residual kinase activity, CDK5
T2 construct: purchased ProQinase GmbH (Freiburg, Germany)
T2 sequence (Q00535 whole entry): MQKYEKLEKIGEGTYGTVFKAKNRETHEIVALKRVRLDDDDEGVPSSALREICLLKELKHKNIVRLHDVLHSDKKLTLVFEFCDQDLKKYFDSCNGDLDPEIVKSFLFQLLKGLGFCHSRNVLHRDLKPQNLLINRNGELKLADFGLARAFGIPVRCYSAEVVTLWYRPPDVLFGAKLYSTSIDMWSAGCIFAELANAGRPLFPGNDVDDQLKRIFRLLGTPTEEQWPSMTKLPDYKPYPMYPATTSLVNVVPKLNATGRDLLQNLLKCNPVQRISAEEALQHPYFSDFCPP
T2 sequence (Q15078 whole entry partner): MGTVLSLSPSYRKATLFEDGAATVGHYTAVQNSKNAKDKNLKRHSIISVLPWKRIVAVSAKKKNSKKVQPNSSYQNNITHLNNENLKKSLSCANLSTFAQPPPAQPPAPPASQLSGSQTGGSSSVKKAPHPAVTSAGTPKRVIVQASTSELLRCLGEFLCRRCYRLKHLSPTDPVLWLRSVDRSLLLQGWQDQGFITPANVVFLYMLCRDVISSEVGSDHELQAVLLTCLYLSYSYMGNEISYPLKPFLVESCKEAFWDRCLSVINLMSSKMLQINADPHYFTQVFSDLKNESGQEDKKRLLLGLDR
Experimental: as §1, §2

CDK7/cyclin H/MAT1 = molecular target: T3, CDK7/cyclin H/MAT1 (Homo sapiens, UniProt P50613); assay: as above; assay type: biochemical; settings: read-out: Residual kinase activity, CDK7
T3 construct: purchased ProQinase GmbH (Freiburg, Germany)
T3 sequence (P50613 whole entry): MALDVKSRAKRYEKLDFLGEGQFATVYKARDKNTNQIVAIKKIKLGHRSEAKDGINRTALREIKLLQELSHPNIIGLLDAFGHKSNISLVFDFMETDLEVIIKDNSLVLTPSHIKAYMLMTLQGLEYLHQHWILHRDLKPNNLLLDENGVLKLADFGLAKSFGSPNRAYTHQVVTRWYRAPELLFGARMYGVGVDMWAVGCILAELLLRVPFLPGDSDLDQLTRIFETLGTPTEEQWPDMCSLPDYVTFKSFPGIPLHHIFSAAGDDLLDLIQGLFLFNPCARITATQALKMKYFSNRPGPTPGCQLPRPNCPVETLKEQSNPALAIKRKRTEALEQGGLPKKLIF
T3 sequence (P51946 whole entry partner): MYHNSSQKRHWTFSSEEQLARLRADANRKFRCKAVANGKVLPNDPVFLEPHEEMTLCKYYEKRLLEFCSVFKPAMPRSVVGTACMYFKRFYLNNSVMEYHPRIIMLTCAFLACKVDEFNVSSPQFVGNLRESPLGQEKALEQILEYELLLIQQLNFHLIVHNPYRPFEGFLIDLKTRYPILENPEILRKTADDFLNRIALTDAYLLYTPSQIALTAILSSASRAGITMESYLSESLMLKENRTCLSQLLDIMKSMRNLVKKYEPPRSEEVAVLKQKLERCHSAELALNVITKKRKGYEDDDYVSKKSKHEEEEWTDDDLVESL
T3 sequence (P51948 whole entry partner): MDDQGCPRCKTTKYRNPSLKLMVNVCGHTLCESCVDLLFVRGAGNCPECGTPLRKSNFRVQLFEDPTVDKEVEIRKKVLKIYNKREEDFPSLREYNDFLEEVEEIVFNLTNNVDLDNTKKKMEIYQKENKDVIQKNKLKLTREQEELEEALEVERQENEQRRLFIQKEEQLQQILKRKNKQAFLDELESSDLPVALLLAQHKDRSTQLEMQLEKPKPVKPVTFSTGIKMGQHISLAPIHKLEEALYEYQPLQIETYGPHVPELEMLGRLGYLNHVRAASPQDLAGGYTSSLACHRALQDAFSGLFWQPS
Experimental: as §1, §2

[1] = system: p53-regulated transcription in Arn8 cells; assay: p53-dependent transcriptional activity, β-galactosidase reporter; assay type: cell-based; settings: 24 h incubation
Experimental: Stronger anticancer activity of the compounds is enhanced by its positive impact on stability and activity of the tumour suppressor p53. To measure p53-dependent transcriptional activity, β-galactosidase activity was quantified in the melanoma cell line Arn8, which had been established using stable transfection of cells with a p53-responsive reporter construct pRGCAfoslacZ (Frebung et al., Cancer Res., 52, 1992-6976). Briefly, after 24 h incubation with the inhibitors the Arn8 cells were permeabilized with 0.3% Triton X-100 for 15 min and then 4-methylumbelliferon-β-D-galactopyranoside was added as a substrate to the final concentration of 80 μM. After 1 h the fluorescence of product 4-methylumbelliferon was measured at 355/460 nm (ex/em) with a Fluoroskan Ascent microplate reader (Labsystems). Data in Tab. 8 present that series of 2-substituted-6-biarylmethylamino-9-cyclopentyl-9H-purine derivatives show a dose-dependent activatory effect on p53-regulated transcription, with the maximum impact observed between 100 and 500 nM concentrations for most of prepared compounds (Tab. 8).

[2] = system: caspase-3/7 activity in PLC/PRF/5 cell line; assay: One-step cellular caspase-3/7 activity assay; assay type: cell-based, human; settings: 24 hours incubation, relative to 0 nM = 1.00
Experimental: (§3) Measurements of proapoptotic properties of new compounds were based on quantification of enzymatic activities of caspases, concretely caspases-3/7. Activity of cellular caspase-3/7 was measured according to Carrasco et al., 2003, BioTechniques, 34(5): 1064-67. Briefly, Hep3B and PLC/PRF/5 cells were incubated in the densities of 10000 cells/well in a 96-well plate overnight. Next day, the compounds in appropriate concentrations were added and cells were incubated for the 24 hours. After incubation, 3× caspase-3/7 assay buffer (150 mM HEPES pH 7.4, 450 mM NaCl, 150 mM KCl, 30 mM MgCl2, 1.2 mM EGTA, 1.5% Nonidet P40, 0.3% CHAPS, 30% sucrose, 30 mM DTT, 3 mM PMSF) with 150 μM Ac-DEVD-AMC as a substrate (Sigma-Aldrich) was added to the wells and plates were incubated at […]. The caspase-3/7 activity was measured after 6 hours using Fluoroskan Ascent microplate reader (Labsystems) at 346 nm/442 nm (excitation/emission).

[3] = system: caspase-3/7 activity in Hep3B cell line; assay: One-step cellular caspase-3/7 activity assay; assay type: cell-based, human; settings: 24 hours, 0 nM = 1.00
Experimental: as §3

remaining activity at 0.1 µM (CDK9/Cyclin T1; 100 nM): 52.7% | remaining activity at 1 µM (CDK9/Cyclin T1; 1000 nM): 23.2% | remaining activity at 0.1 µM (CDK5/p35; 100 nM): 76.7% | remaining activity at 1 µM (CDK5/p35; 1000 nM): 39.6% | remaining activity at 0.1 µM (CDK7/cyclin H/MAT1; 100 nM): 76.3% | remaining activity at 1 µM (CDK7/cyclin H/MAT1; 1000 nM): 68.3% | melting point: 128 to 129 °C
Compound: CC(C)(O)CNc1nc(NCc2ccc(-c3ccco3)nc2)c2ncn(C3CCCC3)c2n1 [BP117, 1-{9-cyclopentyl-6-[(6-furan-2-yl-pyridin-3-ylmethyl)-amino]-9H-purine-2-ylamino}-2-methyl-propan-2-ol]
Concentration of maximum activation [1]: 950 nM | Relative caspase-3/7 activity in PLC/PRF/5 cell line ([2]; compound concentration 160 nM): 0.79 | Relative caspase-3/7 activity in PLC/PRF/5 cell line ([2]; compound concentration 320 nM): 1.17 | Relative caspase-3/7 activity in PLC/PRF/5 cell line ([2]; compound concentration 640 nM): 2.60 | Relative caspase-3/7 activity in PLC/PRF/5 cell line ([2]; compound concentration 1280 nM): 2.99 | Relative caspase-3/7 activity in Hep3B cell line ([3]; 200 nM): 0.77 | Relative caspase-3/7 activity in Hep3B cell line ([3]; 400 nM): 0.89 | Relative caspase-3/7 activity in Hep3B cell line ([3]; 800 nM): 1.06 | Relative caspase-3/7 activity in Hep3B cell line ([3]; 1600 nM): 2.00
